ChEMBL document CHEMBL4699583 (J Med Chem, 2020)

Legend:
[1] = biological target: DNA topoisomerase 2-alpha (Homo sapiens, UniProt P11388); experiment: Inhibition of recombinant human topoisomerase 2alpha using supercoiled pBR322 DNA as substrate incubated for 60 mins by ethidium bromide dye based agarose gel electrophoresis method
[2] = in vitro; conditions: mouse, liver microsomes
[3] = Kinetic solubility of compound in PBS at pH 7.4 incubated for 24 hrs under shaking condition by UPLC-MS analysis; format: physicochemical; conditions: for Kinetic_solubility: buffer, pH 7.4, 24 h

Sequence of DNA topoisomerase 2-alpha (P11388 whole entry): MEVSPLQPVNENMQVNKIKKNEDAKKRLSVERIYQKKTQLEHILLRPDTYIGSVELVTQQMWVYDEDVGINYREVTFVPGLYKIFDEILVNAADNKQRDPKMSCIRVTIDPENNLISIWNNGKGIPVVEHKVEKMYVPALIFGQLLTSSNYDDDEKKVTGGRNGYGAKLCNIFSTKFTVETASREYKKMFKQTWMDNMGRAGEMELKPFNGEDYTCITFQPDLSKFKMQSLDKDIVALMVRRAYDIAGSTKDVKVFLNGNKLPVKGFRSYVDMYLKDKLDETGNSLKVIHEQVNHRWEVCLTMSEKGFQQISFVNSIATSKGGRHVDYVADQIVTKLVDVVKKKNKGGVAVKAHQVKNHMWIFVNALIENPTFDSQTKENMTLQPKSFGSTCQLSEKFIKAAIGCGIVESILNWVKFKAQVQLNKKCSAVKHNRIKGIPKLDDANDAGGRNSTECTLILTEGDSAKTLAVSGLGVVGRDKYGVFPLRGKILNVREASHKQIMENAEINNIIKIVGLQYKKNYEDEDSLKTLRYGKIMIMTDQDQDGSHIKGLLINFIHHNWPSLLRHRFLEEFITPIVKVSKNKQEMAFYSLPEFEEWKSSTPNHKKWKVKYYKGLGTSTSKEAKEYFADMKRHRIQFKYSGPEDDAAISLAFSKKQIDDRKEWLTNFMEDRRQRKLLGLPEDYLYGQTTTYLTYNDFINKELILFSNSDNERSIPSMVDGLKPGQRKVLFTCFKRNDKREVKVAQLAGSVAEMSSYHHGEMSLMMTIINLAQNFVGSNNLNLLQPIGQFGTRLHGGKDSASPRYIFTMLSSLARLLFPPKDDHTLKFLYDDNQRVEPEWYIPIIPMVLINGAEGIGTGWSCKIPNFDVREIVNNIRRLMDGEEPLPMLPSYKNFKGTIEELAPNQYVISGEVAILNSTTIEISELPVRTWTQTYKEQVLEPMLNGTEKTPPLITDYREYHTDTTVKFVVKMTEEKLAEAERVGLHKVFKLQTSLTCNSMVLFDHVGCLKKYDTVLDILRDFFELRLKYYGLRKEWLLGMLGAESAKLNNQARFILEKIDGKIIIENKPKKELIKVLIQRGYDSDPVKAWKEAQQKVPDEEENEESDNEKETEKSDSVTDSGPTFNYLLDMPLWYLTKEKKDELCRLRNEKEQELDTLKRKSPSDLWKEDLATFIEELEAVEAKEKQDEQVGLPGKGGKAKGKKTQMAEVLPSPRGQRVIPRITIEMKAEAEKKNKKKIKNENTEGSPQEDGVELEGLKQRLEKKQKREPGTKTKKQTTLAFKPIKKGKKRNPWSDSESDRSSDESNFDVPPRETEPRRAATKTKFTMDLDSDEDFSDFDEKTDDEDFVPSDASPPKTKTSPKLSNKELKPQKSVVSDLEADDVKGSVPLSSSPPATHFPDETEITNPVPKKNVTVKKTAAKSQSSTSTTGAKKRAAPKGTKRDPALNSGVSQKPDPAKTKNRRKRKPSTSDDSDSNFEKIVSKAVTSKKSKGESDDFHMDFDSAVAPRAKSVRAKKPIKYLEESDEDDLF

| Compound | IC50 [1] | also measured |
| --- | --- | --- |
| CN(c1cccc(F)c1)c1nc(-c2ccncc2)nc2c1CC(N)CC2 (centres undefined) | Not Active |  |
| Fc1cccc(Nc2nc(-c3ccncc3)nc3c2CCCC3)c1 | Not Active |  |
| NC1CCc2nc(-c3ccncc3)nc(Nc3ccc(F)cc3)c2C1 (centres undefined) |  | half-life at 1 h, 4.6 µM [2]: > 1 h; Kinetic_solubility [3]: > 250 µM |
| COc1cccc(Nc2nc(-c3ccncc3)nc3c2CC(N)CC3)c1 (centres undefined) |  | half-life at 1 h, 4.6 µM [2]: > 1 h; Kinetic_solubility [3]: > 250 µM |
| NC1CCc2nc(-c3ccncc3)nc(Nc3cccc(F)c3)c2C1 (racemic) |  | Kinetic_solubility [3]: 126 µM |
| COc1ccc(Nc2nc(-c3ccncc3)nc3c2CC(N)CC3)cc1 (centres undefined) | Not Active |  |
| NC1CCc2nc(-c3cccnc3)nc(Nc3cccc(F)c3)c2C1 (centres undefined) |  | half-life at 1 h, 4.6 µM [2]: > 1 h; solubility kinetic at 24 h ([3]; PBS, pH 7.4, read-out: Kinetic_solubility): > 250 µM |
| NC1CCc2nc(-c3ccncc3)nc(Nc3ccccc3F)c2C1 (centres undefined) | Not Active |  |

More lines, main results first:

| IC50 [1] | Compound | also measured |
| --- | --- | --- |
| Not Active | CN(C)c1cccc(Nc2nc(-c3ccncc3)nc3c2CC(N)CC3)c1 (centres undefined) |  |
| Not Active | NC1CCc2nc(-c3ccncc3)nc(Nc3ccccc3)c2C1 (centres undefined) |  |
| Not Active | NC1CCc2nc(-c3ccccn3)nc(Nc3cccc(F)c3)c2C1 (centres undefined) |  |
